Source: PubChem BioAssay AID1259408 (Genetic Toxicology Data Bank (GENE-TOX), 2018)
Active and inactive are the calls of the source. No rule for the calls is given here.

System: GENE-TOX genotoxicity assays, various organisms and cells
Assay: GENE-TOX mutagenicity studies
Conditions: for call: Assay Type: In vivo carcinogenicity studies, Assay Code: CCG+
[1] = Species/Cell Type: Drosophila melanogaster, Assay Type: Sex-linked recessive lethal gene mutation, Assay Code: SRL+, Evaluation Type: Evaluation A (Pre-1980)
[2] = Species/Cell Type: Mouse (BALB/c-3T3) cells, Assay Type: Cell transformation, Assay Code: CTB-, Evaluation Type: Evaluation A (Pre-1980)
[3] = Species/Cell Type: Nonhuman, Evaluation Type: Evaluation A (Pre-1980)
[4] = Species/Cell Type: Nonhuman, Assay Type: Sister-chromatid exchange (SCE) in vivo, Assay Code: SC3+D, Dose Response: With dose response, Evaluation Type: Evaluation B (Post-1980)
[5] = Species/Cell Type: Syrian hamster embryo (SHE) cells, Assay Type: Cell transformation, clonal assay, Assay Code: CTC+, Evaluation Type: Evaluation A (Pre-1980)
[6] = Species/Cell Type: Salmonella typhimurium (one or more of the five standard strains: TA98, TA100, TA1535, TA1537, and TA1538), Assay Type: Histidine reverse gene mutation, Ames assay, Assay Code: SALT, Evaluation Type: Evaluation A (Pre-1980)
[7] = Species/Cell Type: Rodents, Sex: Male, Assay Type: Dominant lethal test, Assay Code: DLT-, Evaluation Type: Evaluation A (Pre-1980)
[8] = Species/Cell Type: Drosophila melanogaster, Assay Type: Sex-linked recessive lethal gene mutation, Assay Code: SRLT, Evaluation Type: Evaluation A (Pre-1980)
[9] = Species/Cell Type: Salmonella typhimurium (one or more of the five standard strains: TA98, TA100, TA1535, TA1537, and TA1538), Assay Type: Histidine reverse gene mutation, Ames assay, Assay Code: SAL+, Evaluation Type: Evaluation A (Pre-1980)

In the case of `CC(C)C(O)(C(=O)OCC1=CCN2CC[C@H](O)[C@H]12)[C@H](C)O` (stereo partly specified), the mutagenic call [1] is reported as “active; positive”.
`Nc1ccc2cc3ccccc3cc2c1` was tested, and the mutagenic call (Species/Cell Type: Escherichia coli polA (W3110 vs P3478), Assay Type: Rec-assay, DNA effects (bacterial DNA repair), Assay Code: RE2+, Evaluation Type: Evaluation A (Pre-1980)) was “active; positive”, the mutagenic call (Species/Cell Type: Escherichia coli polA (W3119 vs P3478), Assay Type: Rec-assay, DNA effects (bacterial DNA repair), Assay Code: RE1T, Evaluation Type: Evaluation A (Pre-1980)) was “no conclusion” and the mutagenic call [2] was “inactive; negative”. For the same molecule, the mutagenic call (Species/Cell Type: Mouse embryo (AKR/ME) cells, Assay Type: Cell transformation, Assay Code: CTK+, Evaluation Type: Evaluation A (Pre-1980)) was “active; positive”, the call [3] was “active; positive” and the mutagenic call (Species/Cell Type: Nonhuman, Assay Type: Sister-chromatid exchange (SCE) in vitro, Assay Code: SC2+, Evaluation Type: Evaluation B (Post-1980)) was “active; positive”. The mutagenic call [4] was “active; positive”, the mutagenic call (Species/Cell Type: Saccharomyces cerevisiae, Assay Type: Mitotic recombination or gene conversion, Assay Code: YEH-, Evaluation Type: Evaluation A (Pre-1980)) was “inactive; negative” and the mutagenic call (Species/Cell Type: Salmonella typhimurium (one or more of the five standard strains: TA98, TA100, TA1535, TA1537, and TA1538), Assay Type: Histidine reverse gene mutation, Ames assay, Assay Code: SAL+*, Activation: With metabolic activation, Evaluation Type: Evaluation A (Pre-1980)) was “active; positive”. For the same molecule, the mutagenic call (Species/Cell Type: Salmonella typhimurium, Assay Type: Forward and reverse gene mutation, host-mediated assay, Assay Code: HMA+, Evaluation Type: Evaluation A (Pre-1980)) was “active; positive” and the mutagenic call [5] was “active; positive”.
With `CC(CCC(C)OS(C)(=O)=O)OS(C)(=O)=O` (stereo unspecified) the mutagenic call [1] was “active; positive”.
In the case of `Cn1sc(Cl)cc1=O`, the mutagenic call (Species/Cell Type: Mammalian polychromatic erythrocytes, Assay Type: Micronucleus test, chromosome aberrations, Assay Code: MNT-, Evaluation Type: Evaluation B (Post-1980)) is reported as “inactive; negative”.
In the case of `Cc1cc2ccccc2cn1`, the mutagenic call [6] is reported as “no conclusion”.
With `Oc1ccc(Cl)c2cccnc12` the mutagenic call [6] was “no conclusion”.
`COC(=O)Nc1cccc(OC(=O)Nc2cccc(C)c2)c1` was tested, and the mutagenic call (Species/Cell Type: Aspergillus nidulans, Assay Type: Aneuploidy, chromosome aberrations, Assay Code: ASN+, Evaluation Type: Evaluation A (Pre-1980)) was “active; positive” and the mutagenic call (Species/Cell Type: Saccharomyces cerevisiae, Assay Type: Mitotic recombination or gene conversion, Assay Code: YEC-, Evaluation Type: Evaluation A (Pre-1980)) was “inactive; negative”.
In the case of `NC[C@@H](O)CCl`, the mutagenic call [7] is reported as “inactive; negative”.
In the case of `CN(OC(=O)c1ccccc1)c1ccc(N=Nc2ccccc2)cc1`, the mutagenic call [8] is reported as “no conclusion”.
With `N#CCCN` the mutagenic call [8] was “no conclusion” and the mutagenic call (Species/Cell Type: Nonhuman, Assay Type: Sister-chromatid exchange (SCE) in vivo, Assay Code: SC3+, Evaluation Type: Evaluation B (Post-1980)) was “active; positive”.
`CN(N=O)c1ccccc1` was tested, and the mutagenic call (Species/Cell Type: Chinese hamster lung (V79) cells, Assay Type: Forward gene mutation at the HPRT or ouabain locus, Assay Code: V79-*, Activation: With metabolic activation, Evaluation Type: Evaluation A (Pre-1980)) was “inactive; negative” and the mutagenic call (Species/Cell Type: Vicia faba, Assay Type: Chromosome aberrations, Assay Code: VIC+, Evaluation Type: Evaluation A (Pre-1980)) was “active; positive”.
With `Oc1ccc2ccccc2c1N=Nc1ccc(N=Nc2ccccc2)cc1` the mutagenic call (Species/Cell Type: Bacillus subtilis (H17 vs M45T), Assay Type: Rec-assay, spot test, DNA effects (bacterial DNA repair), Assay Code: REXT, Evaluation Type: Evaluation A (Pre-1980)) was “no conclusion”.
In the case of `Cc1cc(N)c(N)cc1C`, the mutagenic call (Species/Cell Type: Mammalian polychromatic erythrocytes, Assay Type: Micronucleus test, chromosome aberrations, Assay Code: MNTT, Evaluation Type: Evaluation B (Post-1980)) is reported as “no conclusion”.
`CCN(N=O)c1ccccc1` was tested, and the mutagenic call (Species/Cell Type: Fischer rat embryo (RLV/1706) cells, Assay Type: Cell transformation, viral enhanced, Assay Code: CTR-, Evaluation Type: Evaluation A (Pre-1980)) was “inactive; negative”, the mutagenic call [2] was “inactive; negative” and the mutagenic call [5] was “active; positive”.
In the case of `CC(=O)NNC(=O)c1ccncc1`, the mutagenic call (Species/Cell Type: Salmonella typhimurium, Assay Type: Forward and reverse gene mutation, host-mediated assay, Assay Code: HMAT, Evaluation Type: Evaluation A (Pre-1980)) is reported as “no conclusion”.
With `O=NN1CCC(=O)NC1=O` the mutagenic call [9] was “active; positive”.
`NC(=O)CCl` was tested, and the mutagenic call (Species/Cell Type: Syrian hamster embryo (SA7/SHE) cells, Assay Type: Cell transformation, viral enhanced, Assay Code: CT7+, Evaluation Type: Evaluation A (Pre-1980)) was “active; positive”.
For `COc1cc(O)ccc1O`, the mutagenic call (Species/Cell Type: Allium cepa, Assay Type: Chromosome aberrations, Assay Code: ALCT, Evaluation Type: Evaluation A (Pre-1980)) was “no conclusion”.
`CNc1ccc(C(=C2C=CC(=[N+](C)C)C=C2)c2ccc(N(C)C)cc2)cc1` was tested, and the mutagenic call (Species/Cell Type: Saccharomyces cerevisiae, Assay Type: Reverse gene mutation, Assay Code: YER-, Evaluation Type: Evaluation A (Pre-1980)) was “inactive; negative”.
With `COc1c(C)c2c(c(O)c1C/C=C(\C)CCC(=O)O)C(=O)OC2` the mutagenic call (Species/Cell Type: Bacillus subtilis (H17 vs M45), Assay Type: Rec-assay, spot test, DNA effects (bacterial DNA repair), Assay Code: REW-, Evaluation Type: Evaluation A (Pre-1980)) was “inactive; negative”, the mutagenic call (Species/Cell Type: Nonhuman, Assay Type: Chromosome aberrations in vitro, Assay Code: CY&+, Evaluation Type: Evaluation A (Pre-1980)) was “active; positive” and the mutagenic call [6] was “no conclusion”.
In the case of `O=NN(CCCl)C(=O)NCCCl`, the mutagenic call (Species/Cell Type: Chinese hamster lung (V79) cells, Assay Type: Forward gene mutation at the HPRT or ouabain locus, Assay Code: V79+, Evaluation Type: Evaluation A (Pre-1980)) is reported as “active; positive”, the mutagenic call [1] is reported as “active; positive” and the mutagenic call (Species/Cell Type: Human lymphocytes, Assay Type: Sister-chromatid exchange (SCE) in vitro, Assay Code: SCL+, Evaluation Type: Evaluation B (Post-1980)) is reported as “active; positive”. For the same molecule, the mutagenic call (Species/Cell Type: Human, Assay Type: Sister-chromatid exchange (SCE) in vitro, Assay Code: SC1+D, Dose Response: With dose response, Evaluation Type: Evaluation B (Post-1980)) was “active; positive”, the call [3] was “active; positive” and the mutagenic call (Species/Cell Type: Nonhuman, Assay Type: Sister-chromatid exchange (SCE) in vitro, Assay Code: SC2+D, Dose Response: With dose response, Evaluation Type: Evaluation B (Post-1980)) was “active; positive”. For the same molecule, the mutagenic call [4] was “active; positive”, the mutagenic call (Species/Cell Type: Saccharomyces cerevisiae, Assay Type: Mitotic recombination or gene conversion, Assay Code: YEC+, Evaluation Type: Evaluation A (Pre-1980)) was “active; positive” and the mutagenic call [9] was “active; positive”.
In the case of `Nc1ccccc1N`, the mutagenic call (Species/Cell Type: Allium cepa, Assay Type: Chromosome aberrations, Assay Code: ALC+, Evaluation Type: Evaluation A (Pre-1980)) is reported as “active; positive”, the mutagenic call (Species/Cell Type: Mammalian polychromatic erythrocytes, Assay Type: Micronucleus test, chromosome aberrations, Assay Code: MNT+, Evaluation Type: Evaluation B (Post-1980)) is reported as “active; positive” and the mutagenic call (Species/Cell Type: Neurospora crassa, Assay Type: Aneuploidy, chromosome aberrations, Assay Code: NEN-, Evaluation Type: Evaluation A (Pre-1980)) is reported as “inactive; negative”. For the same molecule, the mutagenic call [7] was “inactive; negative”.
`Cc1ccc2nc3ccccc3cc2c1` was tested, and the mutagenic call (Species/Cell Type: Saccharomyces cerevisiae, Assay Type: Forward gene mutation, Assay Code: YEFT, Evaluation Type: Evaluation A (Pre-1980)) was “no conclusion”.
